In the CombiSolv-Exp solvation set (Vermeire and Green 2021):

Assay: solvent given as SMILES

SMILES: CCc1ccc2c(c1)C(=O)c1ccccc1C2=O
- solvation free energy, 298 K (in C1CCCCC1): -12.2 kcal/mol
- solvation free energy, 298 K (in C1CCOC1): -14.2 kcal/mol
- solvation free energy, 298 K (in C1COCCO1): -14.1 kcal/mol
- solvation free energy, 298 K (in CC1CCCCC1): -12.1 kcal/mol
- solvation free energy, 298 K (in CC(C)CC(C)(C)C): -11.6 kcal/mol
- solvation free energy, 298 K (in CC(C)CCO): -12.2 kcal/mol
- solvation free energy, 298 K (in CC(C)CO): -12.1 kcal/mol
- solvation free energy, 298 K (in CC(C)O): -12.1 kcal/mol
- solvation free energy, 298 K (in CC(C)OC(C)C): -12.4 kcal/mol
- solvation free energy, 298 K (in CCC(C)O): -12.3 kcal/mol
- solvation free energy, 298 K (in CCCC(C)O): -12.3 kcal/mol
- solvation free energy, 298 K (in CCCCC(CC)CO): -12.4 kcal/mol
- solvation free energy, 298 K (in CCCCCC): -11.9 kcal/mol
- solvation free energy, 298 K (in CCCCCCC): -12 kcal/mol
- solvation free energy, 298 K (in CCCCCCCC): -12 kcal/mol
- solvation free energy, 298 K (in CCCCCCCCCC): -12 kcal/mol
- solvation free energy, 298 K (in CCCCCCCCO): -12.5 kcal/mol
- solvation free energy, 298 K (in CCCCCCCO): -12.5 kcal/mol
- solvation free energy, 298 K (in CCCCCCO): -12.4 kcal/mol
- solvation free energy, 298 K (in CCCCCO): -12.4 kcal/mol
- solvation free energy, 298 K (in CCCCCl): -13.5 kcal/mol
- solvation free energy, 298 K (in CCCCO): -12.3 kcal/mol
- solvation free energy, 298 K (in CCCCOC(C)=O): -13.4 kcal/mol
- solvation free energy, 298 K (in CCCCOCCCC): -12.6 kcal/mol
- solvation free energy, 298 K (in CCCO): -12.1 kcal/mol
- solvation free energy, 298 K (in CCO): -12.6 kcal/mol
- solvation free energy, 298 K (in CCOC(C)=O): -13.5 kcal/mol
- solvation free energy, 298 K (in CO): -12.1 kcal/mol
- solvation free energy, 298 K (in COC(C)=O): -13.7 kcal/mol
- solvation free energy, 298 K (in O): -6.57 kcal/mol

SMILES: CCCC(C)CC (stereo unspecified)
- solvation free energy, 298 K (in C=CCCCCCCCCCCCCCC): -4.01 kcal/mol

SMILES: C#C
- solvation free energy, 298 K (in C1COCCO1): -1.71 kcal/mol
- solvation free energy, 298 K (in CC(C)=O): -1.83 kcal/mol
- solvation free energy, 298 K (in CC(C)CC(C)(C)C): -0.37 kcal/mol
- solvation free energy, 298 K (in CCCCCC): -0.52 kcal/mol
- solvation free energy, 298 K (in CCCCO): -0.82 kcal/mol
- solvation free energy, 298 K (in CN(C)C=O): -1.75 kcal/mol
- solvation free energy, 298 K (in CO): -1.42 kcal/mol
- solvation free energy, 298 K (in COC(C)=O): -1.76 kcal/mol
- solvation free energy, 298 K (in Cc1ccc(C)cc1): -0.8 kcal/mol
- solvation free energy, 298 K (in ClC(Cl)(Cl)Cl): -0.65 kcal/mol
- solvation free energy, 298 K (in O): 0 kcal/mol

SMILES: CC(C)C1=CC2=CCC3C(C)(C)CCCC3(C)C2CC1 (stereo unspecified)
- solvation free energy, 298 K (in O): -0.08 kcal/mol

SMILES: Clc1cccc(Cl)c1
- solvation free energy, 298 K (in CCCCCC): -6.18 kcal/mol
- solvation free energy, 298 K (in CCCCCCCCO): -5.63 kcal/mol
- solvation free energy, 298 K (in O): -1.05 kcal/mol

SMILES: CCc1cccc(CC)c1N(COC)C(=O)CCl
- solvation free energy, 298 K (in O): -8.21 kcal/mol

SMILES: Oc1ccc(F)cc1
- solvation free energy, 298 K (in O): -6.19 kcal/mol

SMILES: COc1cccc(C=O)c1O
- solvation free energy, 298 K (in O): -6.89 kcal/mol

SMILES: COc1ccc(C(c2ccc(OC)cc2)C(Cl)(Cl)Cl)cc1
- solvation free energy, 298 K (in O): -6.93 kcal/mol

SMILES: Cc1cc(NS(=O)(=O)c2ccc(N)cc2)nc(C)n1
- solvation free energy, 298 K (in O): -21.9 kcal/mol

SMILES: Cc1c[nH]cn1
- solvation free energy, 298 K (in O): -10.3 kcal/mol

SMILES: C1=CC=CCC=C1
- solvation free energy, 298 K (in O): -0.99 kcal/mol

SMILES: CCCCSP(=O)(O)SCCCC
- solvation free energy, 298 K (in O): -8.03 kcal/mol

SMILES: CCOP(=S)(OCC)Oc1cc(C)nc(C(C)C)n1
- solvation free energy, 298 K (in O): -6.48 kcal/mol

SMILES: CCOP(=S)(OCC)Oc1ccc([N+](=O)[O-])cc1
- solvation free energy, 298 K (in O): -6.74 kcal/mol

SMILES: CC(=O)OCCOC(C)=O
- solvation free energy, 298 K (in O): -6.34 kcal/mol

SMILES: CCC(N)=O
- solvation free energy, 298 K (in O): -9.4 kcal/mol

SMILES: CC(C)(c1ccc(O)cc1)c1ccc(O)cc1
- solvation free energy, 298 K (in CCCCCCC): -13 kcal/mol
- solvation free energy, 298 K (in CCCCCCCC): -12.9 kcal/mol
- solvation free energy, 298 K (in CCCCCCCCCC): -12.8 kcal/mol
- solvation free energy, 298 K (in Cc1ccc(C)cc1): -15.5 kcal/mol
- solvation free energy, 298 K (in Cc1cccc(C)c1): -15.5 kcal/mol
- solvation free energy, 298 K (in Cc1ccccc1C): -15.6 kcal/mol
- solvation free energy, 298 K (in O): -14.4 kcal/mol

SMILES: CCCCN(C)N=O
- solvation free energy, 298 K (in CC(C)CC(C)(C)C): -5.73 kcal/mol
- solvation free energy, 298 K (in O): -5.37 kcal/mol

SMILES: CC(C)OC=O
- solvation free energy, 298 K (in O): -2.02 kcal/mol

SMILES: CCCNCc1ccc(C)cc1
- solvation free energy, 298 K (in O): -5.73 kcal/mol

SMILES: COP(=O)(OC)OC
- solvation free energy, 298 K (in O): -8.7 kcal/mol

SMILES: C=CC=CCC
- solvation free energy, 298 K (in C=CCCCCCCCCCCCCCC): -3.64 kcal/mol
- solvation free energy, 298 K (in CN1CCCC1=O): -3.67 kcal/mol
- solvation free energy, 298 K (in O): 0.75 kcal/mol

SMILES: FC(F)(F)F
- solvation free energy, 298 K (in Brc1ccccc1): 1.57 kcal/mol
- solvation free energy, 298 K (in C1CCOC1): 1 kcal/mol
- solvation free energy, 298 K (in C1COCCO1): 1.38 kcal/mol
- solvation free energy, 298 K (in CC(C)(C)O): 0.8 kcal/mol
- solvation free energy, 298 K (in CC(C)CC(C)(C)C): 0.56 kcal/mol
- solvation free energy, 298 K (in CC(C)CO): 1 kcal/mol
- solvation free energy, 298 K (in CCC(C)O): 1.01 kcal/mol
- solvation free energy, 298 K (in CCCCCC): 0.49 kcal/mol
- solvation free energy, 298 K (in CCCCCCC): 0.62 kcal/mol
- solvation free energy, 298 K (in CCCCCCCC): 0.72 kcal/mol
- solvation free energy, 298 K (in CCCCCCCC(=O)OCC(COC(=O)CCCCCCC)OC(=O)CCCCCCC): 1.4 kcal/mol
- solvation free energy, 298 K (in CCCCCCCCC): 0.8 kcal/mol
- solvation free energy, 298 K (in CCCCCCCCCC): 0.86 kcal/mol
- solvation free energy, 298 K (in CCCCCCCCCCC): 0.92 kcal/mol
- solvation free energy, 298 K (in CCCCCCCCCCCC): 0.97 kcal/mol
- solvation free energy, 298 K (in CCCCCCCCCCCCC): 1.02 kcal/mol
- solvation free energy, 298 K (in CCCCCCCCCCCCCC): 1.06 kcal/mol
- solvation free energy, 298 K (in CCCCCCCCCCCCCCC): 1.1 kcal/mol
- solvation free energy, 298 K (in CCCCCCCCCCCCCCCC): 1.11 kcal/mol
- solvation free energy, 298 K (in CCCCCCCCCCCO): 1.39 kcal/mol
- solvation free energy, 298 K (in CCCCCCCCCCO): 1.36 kcal/mol
- solvation free energy, 298 K (in CCCCCCCCCO): 1.32 kcal/mol
- solvation free energy, 298 K (in CCCCCCCCO): 1.27 kcal/mol
- solvation free energy, 298 K (in CCCCCCCO): 1.25 kcal/mol
- solvation free energy, 298 K (in CCCCCCO): 1.21 kcal/mol
- solvation free energy, 298 K (in CCCCCO): 1.16 kcal/mol
- solvation free energy, 298 K (in CCCCO): 1.1 kcal/mol
- solvation free energy, 298 K (in CCCO): 1.04 kcal/mol
- solvation free energy, 298 K (in CCO): 0.98 kcal/mol
- solvation free energy, 298 K (in CN1CCCC1=O): 1.8 kcal/mol
- solvation free energy, 298 K (in CN(C)C=O): 1.56 kcal/mol
- solvation free energy, 298 K (in CO): 1 kcal/mol
- solvation free energy, 298 K (in Cc1ccc(C)cc1): 1.11 kcal/mol
- solvation free energy, 298 K (in Cc1cccc(C)c1): 1.13 kcal/mol
- solvation free energy, 298 K (in Cc1ccccc1C): 1.21 kcal/mol
- solvation free energy, 298 K (in ClC(Cl)(Cl)Cl): 0.82 kcal/mol
- solvation free energy, 298 K (in Clc1ccccc1): 1.3 kcal/mol
- solvation free energy, 298 K (in O): 3.13 kcal/mol
- solvation free energy, 298 K (in O=C1CCCC1): 1.36 kcal/mol
- solvation free energy, 298 K (in O=C1CCCCC1): 1.41 kcal/mol

SMILES: O=C(CCCN1CCC(O)(c2ccc(Cl)cc2)CC1)c1ccc(F)cc1
- solvation free energy, 298 K (in CCCCOC(C)=O): -19.5 kcal/mol
- solvation free energy, 298 K (in O): -15.4 kcal/mol

SMILES: CCCCCCNCc1ccc(C)cc1
- solvation free energy, 298 K (in O): -4.97 kcal/mol
